Reference: patent US20250304612A1, “THERAPEUTIC AGENT FOR BLOOD CANCER” (Aptabio Therapeutics Inc., priority 2017, published 2025)

Assays:
Assay in all cases: MTT cytotoxicity assay, drug-resistant blood cancer cells
Assay type in all cases: cell-based
[1] = tested on: Azacitidine-resistant MOLM13; settings: Homo sapiens, MOLM-13, 120 h, 5 days, read-out: IC50, cytotoxic effects on drug-resistant blood cancer cells
Description: (§1) Each oligonucleotide-modified nucleic acid was diluted in a 10 mM Tris-HCl (pH 7.4) solution to a final concentration of 100 μM. The diluted solution was allowed to stand at 94° C. for 5 minutes and then the tube was allowed to stand on ice. The resulting solution was added with a 2M KCl solution such that a final concentration of the KCl solution became 50 mM, allowed to stand at 60° C. for 3 hours and was slowly cooled to room temperature. Each oligonucleotide was diluted in a 10 mM Tris-HCl (pH 7.4) solution to a concentration of 10 μM, and was allowed to stand at 94° C. for 5 minutes, and the tube was allowed to stand on ice. The resulting solution was added with a 2M KCl solution such that the final concentration of the KCl solution became 50 mM, and allowed to stand at 60° C. for 3 hours and then slowly cooled to room temperature, which was then used for the present Example.
(§2) On the day before the experiment, 190 μl of a culture medium (at a concentration of 10^4 to 10^5 cells/ml) containing blood cancer cells such as HL60, MV-4-11, CCRF-CEM, MOLT-4 and MOLM-13 cell lines, and drug-resistant blood cancer cells such as azacitidine (AZA-1)-resistant MOLM13, decitabine (Dec-5)-resistant MOLM13 and cytarabine (AraC-1)-resistant MOLM13 cell lines, and normal cells such as WI38, CCD-18co and Fa2N4 cells were seeded on a 96-well plate. The next day, 10 μl of the oligonucleotide-modified nucleic acid solution prepared in Example 2 was added and then cultured for 5 days.
(§3) Five days after drug treatment, MTT assay was performed to measure cytotoxicity of the cell lines [see JBC 1999, 26369].

[2] = tested on: Cytarabine-resistant MOLM13; settings: Homo sapiens, MOLM-13, 120 h, 5 days, read-out: IC50, cytotoxic effects on drug-resistant blood cancer cells
Description: as §1, §2, §3

[3] = tested on: Decitabine-resistant MOLM13; settings: Homo sapiens, MOLM-13, 120 h, 5 days, read-out: IC50, cytotoxic effects on drug-resistant blood cancer cells
Description: as §1, §2, §3

[4] = tested on: Cytarabine-resistant HL-60; settings: Homo sapiens, 120 h; Cytarabine-resistant HL-60, MTT, 5 days; read-out: IC50, cytotoxic effects on drug-resistant blood cancer cells
[5] = tested on: Cytarabine-resistant MV-4-11; settings: Homo sapiens, MV4-11, 120 h; Cytarabine-resistant MV-4-11, MTT, 5 days; read-out: IC50, cytotoxic effects on drug-resistant blood cancer cells

`Nc1ccn([C@@H]2O[C@H](CO)[C@@H](O)[C@@H]2O)c(=O)n1` [Cytarabine, cytarabine] was tested, and the IC50 [1] was 3.5 µM, the IC50 [2] was greater than 10 µM and the IC50 [3] was 3.49 µM. For the same compound, the IC50 [4] was greater than 30 µM and the IC50 [5] was greater than 20 µM.
